Laboratory results reported in patent US7902371B2, “(1S,5S)-3-(5,6-dichloropyridin-3-yl)-3,6-diazabicyclo[3.2.0]heptane benzenesulfonate” (Abbott Laboratories, priority 2004, dated 2011).

Assays:
Type in all cases: physicochemical
[1] = thermodynamic based polymorph screen; settings: for new crystal forms / polymorphs detected: besylate suspended in different solvents, three months
Protocol: A thermodynamic based polymorph screen was conducted with crystalline (1S,5S)-3-(5,6-dichloropyridin-3-yl)-3,6-diazabicyclo[3.2.0]heptane benzenesulfonate. The benzenesulfonate salt was suspended in different solvents including water, ethanol, acetonitrile, methanol, N,N-dimethylformamide, ethyl acetate, 1,4-dioxane, chloroform, pyridine, nitromethane, PEG 400 and […] water/methanol. […] This difference between the benzenesulfonate and 4-methylbenzenesulfonate salts is unexpected considering the structural similarities of the two acids. The lack of different physical forms is an advantage to chemical and physical processing operations.

[2] = hygroscopicity (relative humidity adsorption/desorption isotherms); settings: relative to acetate, citrate, maleate, methanesulfonate, 4-methylbenzenesulfonate and sulfate salts, FIGS. 1-7
Protocol: Relative humidity isotherms were collected using a VTI SGA-100 Symmetric Vapor Sorption Analyzer. About 2 to 30 mg of sample is added to the system. The relative humidity is held constant at each step until a constant weight equilibrium is achieved or a maximum of six hours per step.

[3] = intrinsic dissolution rate at 37° C.
[4] = solid state stability at 40° C. in the dark at 75% relative humidity; settings: 75% RH
Protocol: Crystalline (1S,5S)-3-(5,6-dichloropyridin-3-yl)-3,6-diazabicyclo[3.2.0]heptane benzenesulfonate was tested for solid state stability at 40° C. in the dark at 75% relative humidity.

Clc1cc(N2C[C@@H]3CN[C@@H]3C2)cnc1Cl.O=S(=O)(O)O [sulfate, (1S,5S)-3-(5,6-dichloropyridin-3-yl)-3,6-diazabicyclo[3.2.0]heptane sulfate]
new crystal forms / polymorphs detected [1]: multiple polymorphs were discovered

O=C(O)[C@H](O)[C@@H](O)C(=O)O [(L)-tartrate]
new crystal forms / polymorphs detected [1]: multiple polymorphs were discovered

Clc1cc(N2C[C@@H]3CN[C@@H]3C2)cnc1Cl.O=S(=O)(O)c1ccccc1 [(1S,5S)-3-(5,6-dichloropyridin-3-yl)-3,6-diazabicyclo[3.2.0]heptane Benzenesulfonate]
hygroscopicity [2]: lower hygroscopicity relative to other salts | intrinsic dissolution rate ([3]; pH 1.0): 8.5 mg/min·cm^2 | intrinsic dissolution rate ([3]; pH 6.8): 10.1 mg/min·cm^2 | unique crystal forms isolated/characterized [1]: only one | new crystal forms / polymorphs detected [1]: No new crystal forms were detected | % remaining ([4]; 0 week): 99.72 ± 0.56% | % remaining ([4]; 1 week): 100.66 ± 0.51% | % remaining ([4]; 2 week): 99.47 ± 1.72% | % remaining ([4]; 4 week): 100.22 ± 0.59% | % remaining ([4]; 6 week): 100.53 ± 0.20% | % remaining ([4]; 8 week): 100.93 ± 0.37% | % remaining ([4]; 12 week): 100.84 ± 0.47%

Cc1ccc(S(=O)(=O)O)cc1.Clc1cc(N2C[C@@H]3CN[C@@H]3C2)cnc1Cl [4-methylbenzenesulfonate salt, (1S,5S)-3-(5,6-dichloropyridin-3-yl)-3,6-diazabicyclo[3.2.0]heptane 4-methylbenzenesulfonate]
unique crystal forms isolated/characterized [1]: three unique crystal forms | new crystal forms / polymorphs detected [1]: multiple polymorphs were discovered
